Source: patent publication US9115380B2, “Kits and methods for generating 5′ capped RNA” (priority 2006, dated 2015)
Read-outs that look alike come from different tables or passages of the source.

Assays:
wheat germ lysate = format: biochemical; conditions: wheat germ lysate, poly(A)-tailed Renilla luciferase RNA
[1] = molecular target: vaccinia mRNA (nucleoside-2′-O—) methyltransferase (Vaccinia virus, UniProt P07617); format: biochemical
[2] = tested on: rabbit reticulocyte lysate; format: biochemical; conditions: rabbit reticulocyte lysate
[3] = molecular target: RNA guanyltransferase activity of the vaccinia capping enzyme system (Vaccinia virus, UniProt P04298); conditions: permeabilized vaccinia virions; cited from earlier work
[4] = tested on: tobacco acid pyrophosphatase (TAP); format: biochemical; conditions: capped RNA prepared per Method 6
vaccinia capping enzyme = vaccinia capping enzyme (Vaccinia virus, UniProt P04298); format: biochemical

Nc1nc2c(ncn2[C@H]2C[C@H](O)[C@@H](COP(=O)(O)OP(=O)(O)OP(=O)(O)O)O2)c(=O)[nH]1 [2′-dGTP, 2′-deoxyguanosine-5′-triphosphate]
relative translation efficiency (wheat germ lysate; cap 0 structure, GTP-capped cap 0 RNA = 100%): 54% | relative translation efficiency (wheat germ lysate; cap I structure): 54% | methylation of the 2′-hydroxyl of the 5′-penultimate nucleotide by mRNA (nucleoside-2′-O—) methyltransferase [1]: 52-base radioactive band was observed | average relative translation efficiency ([2]; poly(A)-tailed Renilla luciferase RNA, cap 0 structure, GTP-capped cap 0 RNA = 100%): 118% | average relative translation efficiency ([2]; poly(A)-tailed Renilla luciferase RNA, cap I structure): 84% | average relative translation efficiency ([2]; poly(A)-tailed firefly luciferase RNA, cap I structure): 128% | activity relative to GTP in [^32P]-PPi exchange assay [3]: approximately 6% | removal of the cap nucleotide by tobacco acid pyrophosphatase (51-base band on PAGE) [4]: 51-base band was observed | conversion of 51-base primary RNA transcript to 52-base capped RNA (in words) (vaccinia capping enzyme): quantitatively converted
